Laboratory results as given in patent US12398154B2, “Azaquinazoline pan-KRas inhibitors” (Mirati Therapeutics, Inc., priority 2020, dated 2025).
Like-named read-outs stand apart in the source and are kept apart here.

Experiments:
[1] = tested on: phospho-ERK in NCI-H727 (G12V) cells; test: Inhibition of KRas-mediated phosphorylation of ERK (in-cell western); type: cell-based; conditions: 3 hours compound, phospho-ERK normalized to GAPDH
Summary of the method: (§1)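 Fixed-cell immunodetection of ERK phosphorylation following 3 h compound treatment (0.5% DMSO). IC50 derived by 4-parameter fit of GAPDH-normalized signal versus DMSO control.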

[2] = tested on: phospho-ERK in HCT116 (G13D) cells; test: as above; type: cell-based; conditions: Homo sapiens, HCT-116, 3 hours compound, phospho-ERK normalized to GAPDH
Summary of the method: as §1

[3] = tested on: phospho-ERK in A549 (G12S) cells; test: as above; type: cell-based; conditions: Homo sapiens, 3 hours compound, phospho-ERK normalized to GAPDH
Summary of the method: as §1

[4] = tested on: phospho-ERK in PSN-1 (G12R) cells; test: as above; type: cell-based; conditions: Homo sapiens, PSN1, 3 hours compound, phospho-ERK normalized to GAPDH
Summary of the method: as §1

[5] = tested on: phospho-ERK in AsPC-1 (G12D) cells; test: as above; type: cell-based; conditions: 3 hours compound, phospho-ERK normalized to GAPDH
Summary of the method: as §1

[6] = tested on: phospho-ERK in NCI-H460 (Q61H) cells; test: as above; type: cell-based; conditions: 3 hours compound, phospho-ERK normalized to GAPDH
Summary of the method: as §1

[7] = tested on: phospho-ERK in NCI-H358 (G12C) cells; test: as above; type: cell-based; conditions: Homo sapiens, 3 hours compound, phospho-ERK normalized to GAPDH
Summary of the method: as §1

[8] = tested on: phospho-ERK in MKN1 (WTdep) cells; test: as above; type: cell-based; conditions: Homo sapiens, MKN-1, 3 hours compound, phospho-ERK normalized to GAPDH
Summary of the method: as §1

KRas G13D = molecular target: T1, KRas G13D (Homo sapiens, UniProt P01116, G13D); test: KRas binding assay (TR-FRET displacement);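 note: One-hour room temperature incubation before TR-FRET reading, IC50 from a four-parameter curve fit to percent-of-control data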
T1 construct: Biotinylated KRas (corresponding to amino acids 1-169, produced at Accelegan Inc.); biotin (biotinylated); purchased Accelegan Inc
T1 sequence (P01116 1-169 isoform P01116-2 G13D): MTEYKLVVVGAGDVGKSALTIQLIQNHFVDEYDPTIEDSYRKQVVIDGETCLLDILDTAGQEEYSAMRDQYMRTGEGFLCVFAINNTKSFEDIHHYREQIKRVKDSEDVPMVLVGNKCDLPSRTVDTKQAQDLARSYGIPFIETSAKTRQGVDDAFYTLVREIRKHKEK
Protocol: (§2) The ability of a compound to bind to KRas was measured using a TR-FRET displacement assay. […] After a 60-minute incubation at room temperature, the reaction was measured using a BMG LABTECH CLARIO star Plus via TR-FRET. […] The POC values were fit to a 4-parameter IC50 equation and the IC50 value reported.

pERK in A549 cells = test: Inhibition of KRas phosphorylation of ERK (Cisbio HTRF pERK assay); conditions: Homo sapiens, A549, read-out: Inhibition (HTRF IC50) of KRas-mediated Phosphorylation of ERK, A549
pERK in ASPC1 cells = test: as above; conditions: Homo sapiens, ASPC1, read-out: Inhibition (HTRF IC50) of KRas-mediated Phosphorylation of ERK, AsPC-1
KRas G12V [9] = molecular target: T2, KRas G12V (Homo sapiens, UniProt P01116, G12V); test: biochemical;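 note: KRas binding measured by TR-FRET displacement at room temperature, IC50 fitted from percent of control values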
T2 sequence (P01116 1-169 isoform P01116-2 G12V): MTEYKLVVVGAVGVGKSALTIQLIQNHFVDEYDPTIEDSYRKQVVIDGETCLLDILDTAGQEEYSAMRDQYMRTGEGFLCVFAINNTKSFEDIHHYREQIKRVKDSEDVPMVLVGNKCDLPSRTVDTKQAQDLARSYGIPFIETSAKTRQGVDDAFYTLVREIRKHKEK
Protocol: as §2

KRas G12C = KRas G12C (Homo sapiens, UniProt P01116, G12C); test: biochemical;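 note: binding to KRas assessed by TR-FRET displacement after one hour incubation at room temperature, potency fitted from percent-of-control values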
Chain of KRas G12C (P01116 1-169 isoform P01116-2 G12C): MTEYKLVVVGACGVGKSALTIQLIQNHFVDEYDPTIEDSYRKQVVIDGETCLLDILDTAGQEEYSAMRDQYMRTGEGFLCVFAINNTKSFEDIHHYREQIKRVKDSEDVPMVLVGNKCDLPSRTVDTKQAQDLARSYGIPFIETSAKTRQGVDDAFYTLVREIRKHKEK
Protocol: as §2

pERK in PSN1 cells = test: Inhibition of KRas phosphorylation of ERK (Cisbio HTRF pERK assay); conditions: Homo sapiens, PSN1, 3 h, read-out: Inhibition (HTRF IC50) of KRas-mediated Phosphorylation of ERK, PSN1
Protocol: To harvest cells from flask using 0.05% Trypsin/EDTA solution. Add 10 mL of media to stop trypsinizing. Pipette the cells into a conical bottom 50 mL centrifuge tube and centrifuge 5 min×1000 rpm. • 2. Re-suspend the cell pellet in media, take a cell count, and then adjust the cell density using fresh media. • 3. Seed 6,000 cells into cell culture plate with 50 μL media. […] Incubate cell plate overnight in a 37° C., 5% CO2 incubator. • Compound titrations • 1. Use Tecan to complete the compound addition. Compounds start from 10 uM top, 3-fold dilution, and 10 doses. The final DMSO concentration is 0.8%. Dispensed 0.2 uM Trametinib as Min control. • 2. Incubate cell plate for 3 hrs in the incubator. • Detection with cisbio pERK HTRF kit • 1. […] At the end of the compound treatment, flick-off the media. • 3. Add 35 μL of lysis buffer per well using a Multidrop Combi. Then place on a plate agitator shaking at 300 rpm at 4° C. for 40 mins. • 4. Make up the HTRF antibody buffer. For each assay plate, mix 50 μL of d2-conjugate antibody with 950 μL of detection buffer. Similarly, mix 50 μL of Cryptate antibody with 950 μL of detection buffer. Then mix the two diluted antibodies together. • 5. Dispense 3.4 μL the antibody buffer to wells of an empty assay plate. Seal the plate and centrifuge plate 30 sec×1000 rpm. • 6. At the end of the 4° C. lysis, centrifuge the lysate plates 3 mins×1500 rpm. • 7. Use the Bravo to transfer 13.6 μL of lysate from cell culture plate to assay plate.
Then incubate assay plate for 2 hrs at room temperature. […] At the end of incubation, read plate on the Envision after centrifuging plate 30 sec× • 1000 rpm.

KRas G12D = KRas G12D (Homo sapiens, UniProt P01116, G12D); test: biochemical;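 note: TR-FRET displacement binding assay on KRas, read after a one-hour incubation at room temperature, IC50 fitted from percent-of-control values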
Chain of KRas G12D (P01116 1-169 isoform P01116-2 G12D): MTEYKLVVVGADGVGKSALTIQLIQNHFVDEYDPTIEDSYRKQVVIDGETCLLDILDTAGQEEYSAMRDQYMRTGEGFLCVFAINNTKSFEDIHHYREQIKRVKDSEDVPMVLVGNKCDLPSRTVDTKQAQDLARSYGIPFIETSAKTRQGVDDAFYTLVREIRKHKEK
Protocol: as §2

pERK in H460 cells = test: Inhibition of KRas phosphorylation of ERK (Cisbio HTRF pERK assay); conditions: Homo sapiens, NCI-H460, read-out: Inhibition (HTRF IC50) of KRas-mediated Phosphorylation of ERK, H460
KRas G12S = KRas G12S (Homo sapiens, UniProt P01116, G12S); test: biochemical;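 note: TR-FRET displacement binding to KRas, read after one hour incubation at room temperature, IC50 from four-parameter fit of percent of control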
Chain of KRas G12S (P01116 1-169 isoform P01116-2 G12S): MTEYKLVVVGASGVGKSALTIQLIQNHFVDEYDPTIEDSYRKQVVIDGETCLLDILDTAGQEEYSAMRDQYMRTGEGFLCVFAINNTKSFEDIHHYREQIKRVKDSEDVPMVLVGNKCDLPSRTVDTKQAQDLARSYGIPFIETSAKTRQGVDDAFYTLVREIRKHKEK
Protocol: as §2

KRas G12R [10] = molecular target: T3, KRas G12R (Homo sapiens, UniProt P01116, G12R); test: biochemical;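 note: TR-FRET displacement assay of compound binding to KRas, read after one hour at room temperature, potency from a four-parameter fit of percent-of-control values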
T3 sequence (P01116 1-169 isoform P01116-2 G12R): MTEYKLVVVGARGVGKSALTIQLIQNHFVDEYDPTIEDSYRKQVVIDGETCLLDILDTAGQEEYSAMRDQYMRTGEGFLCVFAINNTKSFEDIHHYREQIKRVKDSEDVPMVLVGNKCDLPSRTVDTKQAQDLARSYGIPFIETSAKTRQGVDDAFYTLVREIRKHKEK
Protocol: as §2

pERK in HCT116 cells = test: Inhibition of KRas phosphorylation of ERK (Cisbio HTRF pERK assay); conditions: Homo sapiens, HCT-116, read-out: Inhibition (HTRF IC50) of KRas-mediated Phosphorylation of ERK, HCT116
KRas Q61H = molecular target: T4, KRas Q61H (Homo sapiens, UniProt P01116, Q61H); test: KRas binding assay (TR-FRET displacement);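 note: TR-FRET signal read after one hour at room temperature, IC50 derived by four-parameter fitting of percent-of-control values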
T4 construct: Biotinylated KRas (corresponding to amino acids 1-169, produced at Accelegan Inc.); biotin (biotinylated); purchased Accelegan Inc
T4 sequence (P01116 1-169 isoform P01116-2 Q61H): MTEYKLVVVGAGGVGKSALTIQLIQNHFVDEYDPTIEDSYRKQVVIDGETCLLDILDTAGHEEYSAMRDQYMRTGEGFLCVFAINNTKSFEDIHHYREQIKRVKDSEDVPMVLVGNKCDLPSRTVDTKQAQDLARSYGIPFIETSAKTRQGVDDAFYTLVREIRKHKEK
Protocol: as §2

pERK in H727 cells = test: Inhibition of KRas phosphorylation of ERK (Cisbio HTRF pERK assay); conditions: Homo sapiens, NCI-H727, read-out: Inhibition (HTRF IC50) of KRas-mediated Phosphorylation of ERK, H727
KRas WT = KRas WT (Homo sapiens, UniProt P01116); test: biochemical;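 note: binding to KRas read as TR-FRET displacement after a one-hour room-temperature incubation, IC50 derived from percent-of-control values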
Chain of KRas WT (P01116 1-169 isoform P01116-2): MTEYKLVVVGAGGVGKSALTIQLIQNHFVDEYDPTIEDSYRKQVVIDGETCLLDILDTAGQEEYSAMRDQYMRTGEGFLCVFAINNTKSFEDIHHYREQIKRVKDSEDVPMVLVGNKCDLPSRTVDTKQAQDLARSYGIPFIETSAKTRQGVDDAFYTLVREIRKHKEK
Protocol: as §2

pERK in MKN1 cells = test: Inhibition of KRas phosphorylation of ERK (Cisbio HTRF pERK assay); conditions: Homo sapiens, MKN-1, 3 h, read-out: Inhibition (HTRF IC50) of KRas-mediated Phosphorylation of ERK, MKN1
KRas G12A = KRas G12A (Homo sapiens, UniProt P01116, G12A); test: biochemical;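 note: binding to KRas measured by TR-FRET displacement after one hour at room temperature, IC50 from a four-parameter fit of percent-of-control values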
Chain of KRas G12A (P01116 1-169 isoform P01116-2 G12A): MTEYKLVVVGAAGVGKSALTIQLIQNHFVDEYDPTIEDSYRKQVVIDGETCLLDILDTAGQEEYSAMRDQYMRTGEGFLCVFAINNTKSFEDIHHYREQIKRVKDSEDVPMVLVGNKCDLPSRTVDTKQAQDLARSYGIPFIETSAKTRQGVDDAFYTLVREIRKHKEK
Protocol: as §2

pERK in H358 cells = test: Inhibition of KRas phosphorylation of ERK (Cisbio HTRF pERK assay); conditions: Homo sapiens, NCI-H358, read-out: Inhibition (HTRF IC50) of KRas-mediated Phosphorylation of ERK, H358
KRas G12V [11] = molecular target: T2, KRas G12V
Protocol: as §2

KRas G12R [12] = molecular target: T3, KRas G12R
Protocol: as §2

Row | IC50 (KRas G13D) [nM] | IC50 (pERK in A549 cells) [nM] | IC50 (pERK in ASPC1 cells) [nM] | IC50 (KRas G12V [9]) [nM] | IC50 (pERK in PSN1 cells) [nM] | IC50 (KRas G12D) [nM] | IC50 (pERK in H460 cells) [nM] | IC50 (KRas G12R [10]) [nM] | IC50 (pERK in HCT116 cells) [nM] | IC50 (KRas Q61H) [nM] | IC50 (pERK in H727 cells) [nM] | IC50 (pERK in MKN1 cells) [nM] | SMILES | IC50 ([1]; Homo sapiens, NCI-H727, 3 h) [nM] | IC50 [2] [nM] | IC50 [3] [nM] | IC50 [4] [nM] | IC50 ([5]; Homo sapiens, ASPC1, 3 h) [nM] | IC50 ([6]; Homo sapiens, NCI-H460, 3 h) [nM] | IC50 [7] [nM] | IC50 [8] [nM] | also measured
1 | ≤ 2 | 43 | 4 | ≤ 2 | 1090 | ≤ 2 | 27 | ≤ 2 | 33 | ≤ 2 | 13 | 5 | C#Cc1c(F)ccc2cc(O)cc(-c3ncc4c(N5CCC[C@@](C)(O)C5)nc(OC[C@@]56CCCN5C[C@H](F)C6)nc4c3F)c12 [Example 13] | 44 | 42 | 140 | 773 | 18 | 13 | 11 | 10 | IC50 (KRas G12C): ≤ 2 nM; IC50 (KRas G12S): ≤ 2 nM; IC50 (KRas WT): ≤ 2 nM; IC50 (KRas G12A): ≤ 2 nM
2 | 3 | 156 | 20 | ≤ 2 | 7250 | 3 | 101 | 3 | 155 | 3 | 159 | 21 | CCc1c(F)ccc2cc(O)cc(-c3ncc4c(N5CCC[C@@](C)(O)C5)nc(OC[C@@H]5CCCN5C)nc4c3F)c12 [Example 28, (3R)-1-[7-(8-ethyl-7-fluoro-3-hydroxy-1-naphthyl)-8-fluoro-2-[[(2S)-1-methylpyrrolidin-2-yl]methoxy]pyrido[4,3-d]pyrimidin-4-yl]-3-methyl-piperidin-3-ol] | 308 | 153 | 523 | ≥ 10000 | 78 | 54 | 60 | 24 | IC50 (KRas G12C): ≤ 2 nM; IC50 (KRas G12S): ≤ 2 nM; IC50 (KRas WT): 3 nM; IC50 (KRas G12A): ≤ 2 nM
3 | 3 | 175 | 32 | ≤ 2 |  | ≤ 2 | 119 | ≤ 2 | 2010 | ≤ 2 | 55 |  | CCc1c(F)ccc2cc(O)cc(-c3ncc4c(N5CCCC6(CC(=O)N6)C5)nc(OC[C@@]56CCCN5C[C@H](F)C6)nc4c3F)c12 (some centres unmarked) [Example 57] | 115 | 1080 | 668 | 4140 | 82 | 119 | 50 | 22 | 
4 |  | 19 | 4 |  |  |  | 21 |  | 63 |  | 28 |  | CCc1c(F)ccc2cc(O)cc(-c3ncc4c(N5CCOCC(C)(O)C5)nc(OC[C@@]56CCCN5C[C@H](F)C6)nc4c3F)c12 (some centres unmarked) [Example 63] | 56 | 44 | 139 | 1040 | 15 | 38 | 27 | 5 | 
5 |  | 15 | 15 | ≤ 2 | 2320 | ≤ 2 | 22 | ≤ 2 | 106 |  | 16 | 6 | CCc1c(F)ccc2cc(O)cc(-c3ncc4c(N5CC6CC(O)C(C6)C5)nc(OC[C@@]56CCCN5C[C@H](F)C6)nc4c3F)c12 (some centres unmarked) [Example 82] | 65 | 216 | 25 | 1740 | 18 | 180 | 3 | 10 | IC50 (pERK in H358 cells): 10 nM
6 |  | 290 | 25 | ≤ 2 |  | 4 | 180 | 3 | 276 |  | 111 |  | C#Cc1c(F)ccc2cc(O)cc(-c3ncc4c(N5CCOCC(C)(O)C5)nc(OC[C@@]56CCCN5C[C@H](F)C6)nc4c3F)c12 (some centres unmarked) [Example 149] | 206 | 292 | 83 | 1760 | 9 | 71 | 10 | 16 | 
7 |  |  | 125 | ≤ 2 |  | ≤ 2 | 143 | ≤ 2 | 349 |  | 72 |  | CCc1c(F)ccc2cc(O)cc(-c3ncc4c(NCc5ccc6nccn6c5)nc(OC[C@@]56CCCN5C[C@H](F)C6)nc4c3F)c12 [Example 156, 5-ethyl-6-fluoro-4-(8-fluoro-2-(((2R,7aS)-2-fluorohexahydro-1H-pyrrolizin-7a-yl)methoxy)-4-((imidazo[1,2-a]pyridin-6-ylmethyl)amino)pyrido[4,3-d]pyrimidin-7-yl)naphthalen-2-ol] | 189 | 323 | 33 | ≥ 10000 | 335 | 141 | 10 | 14 | 
8 |  |  |  |  | ≥ 10000 | 4 |  |  |  |  |  | 53 | CCc1c(F)ccc2cc(O)cc(-c3ncc4c(N5C[C@H](O)C[C@@H](O)C5)nc(OC[C@@]56CCCN5C[C@H](F)C6)nc4c3F)c12 [Example 296, (3R,5R)-1-(7-(8-ethyl-7-fluoro-3-hydroxynaphthalen-1-yl)-8-fluoro-2-(((2R,7aS)-2-fluorohexahydro-1H-pyrrolizin-7a-yl)methoxy)pyrido[4,3-d]pyrimidin-4-yl)piperidine-3,5-diol] |  |  |  |  |  |  |  |  | IC50 [1]: 2080 nM; IC50 [5]: 2200 nM; IC50 [6]: 619 nM; IC50 (KRas G12V [11]): ≤ 2 nM; IC50 (KRas G12R [12]): ≤ 2 nM
